From ChEMBL document CHEMBL6114989, “D-morphinan analogs with favorable pharmacokinetic profiles as dual-acting antidepressants” (Eur J Med Chem, 2025)
pIC50: −log10 of the molar value. Calls of active or inactive are those of the source. The rule behind the calls is not given here.

How the values were obtained:
[1] = Hepatotoxicity against human HepG2 cells assessed as inhibition of cell proliferation incubated for 48 hrs by celltiter-luminescence assay; format: toxicity, cell-based
[2] = Half life in ICR mouse at 10 mg/kg, ip measured upto 24 hrs by LC-MS/MS analysis; format: ADME, organism-based; details: in vivo
[3] = Metabolic stability in mouse liver microsome assessed as half life in presence of NADPH measured upto 60 mins by LC-MS/MS analysis; format: ADME; details: liver microsomes
[4] = molecular target: Sodium-dependent dopamine transporter (Homo sapiens, UniProt Q01959); test: Inhibition of DAT (unknown origin) at 10 uM relative to control
[5] = tested on: Mus musculus; test: Antidepressant activity in C57BL/6J mouse assessed as reduction in of immobility time at 10 to 30 mg/kg, po by forced swim test; format: functional, organism-based; details: dose 10-30 mg/kg
[6] = tested on: HEK293; test: Nephrotoxicity against human HEK293 cells assessed as reduction in cell viability at 200 uM incubated for 48 hrs by celltiter-luminescence assay; format: toxicity, cell-based; details: hek293, 48 h
[7] = Tmax in ICR mouse at 10 mg/kg, po measured upto 24 hrs by LC-MS/MS analysis; format: ADME, organism-based; details: in vivo
[8] = Half life in ICR mouse at 10 mg/kg, po measured upto 24 hrs by LC-MS/MS analysis; format: ADME, organism-based; details: in vivo
[9] = Metabolic stability in human liver microsome assessed as half life in presence of NADPH measured upto 60 mins by LC-MS/MS analysis; format: ADME; details: liver microsomes
[10] = molecular target: T1, Sodium-dependent noradrenaline transporter (Homo sapiens, UniProt P23975); test: Inhibition of human NET
[11] = Nephrotoxicity against human HEK293 cells assessed as inhibition of cell proliferation incubated for 48 hrs by celltiter-luminescence assay; format: toxicity, cell-based
[12] = AUC (0 to infinity) in ICR mouse at 10 mg/kg, po measured upto 24 hrs by LC-MS/MS analysis; format: ADME, organism-based; details: in vivo
[13] = molecular target: Voltage-gated inwardly rectifying potassium channel KCNH2 (Homo sapiens, UniProt Q12809); test: Inhibition of hERG expressed in CHO cells assessed as inhibition of channel current at holding potential of -80 mV by automated patch clamp method; format: toxicity, cell-based
[14] = AUC (0 to t) in ICR mouse at 10 mg/kg, po measured upto 24 hrs by LC-MS/MS analysis; format: ADME, organism-based; details: in vivo
[15] = Metabolic stability in human liver microsome assessed as intrinsic clearance in presence of NADPH measured upto 60 mins by LC-MS/MS analysis; format: ADME; details: liver microsomes, read-out: CLH
[16] = AUC (0 to t) in ICR mouse at 10 mg/kg, ip measured upto 24 hrs by LC-MS/MS analysis; format: ADME, organism-based; details: in vivo
[17] = MRT (0 to infinity) in ICR mouse at 10 mg/kg, ip measured upto 24 hrs by LC-MS/MS analysis; format: ADME, organism-based; details: in vivo
[18] = Metabolic stability in mouse liver microsome assessed as hepatic clearance in presence of NADPH measured upto 60 mins by LC-MS/MS analysis; format: ADME; details: liver microsomes
[19] = molecular target: Glutamate NMDA receptor; GRIN1/GRIN2A (Homo sapiens, UniProt Q05586+Q12879); test: Antagonist activity at human GluN1/GluN2A NMDA receptor expressed in HEK293 cells assessed as reduction in glutamate induced current at -70 mV holding potential by whole-cell patch clamp technique; format: cell-based
[20] = Tmax in ICR mouse at 10 mg/kg, ip measured upto 24 hrs by LC-MS/MS analysis; format: ADME, organism-based; details: in vivo
[21] = tested on: Mus musculus; test: Antidepressant activity in C57BL/6J mouse assessed as reduction in of immobility time at 10 to 30 mg/kg, po in presence of quinidine by forced swim test; format: functional, organism-based; details: dose 10-30 mg/kg
[22] = Metabolic stability in mouse liver microsome assessed as intrinsic clearance in presence of NADPH measured upto 60 mins by LC-MS/MS analysis; format: ADME; details: liver microsomes, read-out: CLH
[23] = Hepatotoxicity against human HepG2 cells assessed as reduction in cell viability at 50 uM incubated for 48 hrs by celltiter-luminescence assay; format: toxicity, cell-based; details: hepg2, 48 h
[24] = molecular target: Mu-type opioid receptor (Homo sapiens, UniProt P35372); test: Agonist activity at human mu-opioid receptor stably expressed in CHO cells assessed as inhibition of forskolin-induced cAMP accumulation at 30 uM preincubated with compound for 10 mins followed by forskolin induction and measured after 30 mins by LANCE Ultra cAMP assay relative to control; format: functional, cell-based; details: time 40.0 min
[25] = Metabolic stability in human liver microsome assessed as hepatic clearance in presence of NADPH measured upto 60 mins by LC-MS/MS analysis; format: ADME; details: liver microsomes
[26] = MRT (0 to t) in ICR mouse at 10 mg/kg, po measured upto 24 hrs by LC-MS/MS analysis; format: ADME, organism-based; details: in vivo
[27] = Cmax in ICR mouse at 10 mg/kg, po measured upto 24 hrs by LC-MS/MS analysis; format: ADME, organism-based; details: in vivo
[28] = Cmax in ICR mouse at 10 mg/kg, ip measured upto 24 hrs by LC-MS/MS analysis; format: ADME, organism-based; details: in vivo
[29] = AUC (0 to infinity) in ICR mouse at 10 mg/kg, ip measured upto 24 hrs by LC-MS/MS analysis; format: ADME, organism-based; details: in vivo
[30] = Selectivity index, ratio of IC50 for inhibition of human GluN1/GluN2A NMDA receptor expressed in HEK293 cells to IC50 for inhibition of SERT (unknown origin); format: cell-based
[31] = Metabolic stability in mouse liver microsome assessed as hepatic extraction ratio in presence of NADPH measured upto 60 mins by LC-MS/MS analysis; format: ADME; details: liver microsomes, read-out: ERH
[32] = Hepatotoxicity against human HepG2 cells assessed as reduction in cell viability at 100 to 200 uM incubated for 48 hrs by celltiter-luminescence assay; format: toxicity, cell-based; details: hepg2, 48 h, dose 100-200 µM
[33] = molecular target: T1, Sodium-dependent noradrenaline transporter; test: Inhibition of NET (unknown origin) at 10 uM relative to control
[34] = Metabolic stability in human liver microsome assessed as hepatic extraction ratio in presence of NADPH measured upto 60 mins by LC-MS/MS analysis; format: ADME; details: liver microsomes, read-out: ERH
[35] = tested on: Mus musculus; test: Antidepressant activity in ip dosed C57BL/6J mouse assessed as reduction in of immobility time by forced swim test; format: functional, organism-based; details: dose 10-20 mg/kg
[36] = tested on: Mus musculus; test: Antidepressant activity in C57BL/6J mouse assessed as reduction in of immobility time at 20 mg/kg, ip by forced swim test; format: functional, organism-based
[37] = molecular target: Sodium-dependent serotonin transporter (Homo sapiens, UniProt P31645)
[38] = tested on: HEK293; test: Nephrotoxicity against human HEK293 cells assessed as reduction in cell viability at 100 to 200 uM incubated for 48 hrs by celltiter-luminescence assay; format: toxicity, cell-based; details: hek293, 48 h, dose 100-200 µM

Sequence of Mu-type opioid receptor (P35372 whole entry): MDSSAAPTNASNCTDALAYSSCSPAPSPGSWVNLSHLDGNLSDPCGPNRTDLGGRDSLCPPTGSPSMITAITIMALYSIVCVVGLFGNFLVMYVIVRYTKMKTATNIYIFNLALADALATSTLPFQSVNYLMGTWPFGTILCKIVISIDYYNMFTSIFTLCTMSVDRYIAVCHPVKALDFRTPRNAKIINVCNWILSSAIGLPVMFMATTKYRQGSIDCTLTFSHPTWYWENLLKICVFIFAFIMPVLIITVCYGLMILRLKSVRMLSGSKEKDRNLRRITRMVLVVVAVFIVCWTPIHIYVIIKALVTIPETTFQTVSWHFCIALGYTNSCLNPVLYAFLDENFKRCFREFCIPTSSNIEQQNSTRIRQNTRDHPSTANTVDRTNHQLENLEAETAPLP
Sequence of Sodium-dependent dopamine transporter (Q01959 whole entry): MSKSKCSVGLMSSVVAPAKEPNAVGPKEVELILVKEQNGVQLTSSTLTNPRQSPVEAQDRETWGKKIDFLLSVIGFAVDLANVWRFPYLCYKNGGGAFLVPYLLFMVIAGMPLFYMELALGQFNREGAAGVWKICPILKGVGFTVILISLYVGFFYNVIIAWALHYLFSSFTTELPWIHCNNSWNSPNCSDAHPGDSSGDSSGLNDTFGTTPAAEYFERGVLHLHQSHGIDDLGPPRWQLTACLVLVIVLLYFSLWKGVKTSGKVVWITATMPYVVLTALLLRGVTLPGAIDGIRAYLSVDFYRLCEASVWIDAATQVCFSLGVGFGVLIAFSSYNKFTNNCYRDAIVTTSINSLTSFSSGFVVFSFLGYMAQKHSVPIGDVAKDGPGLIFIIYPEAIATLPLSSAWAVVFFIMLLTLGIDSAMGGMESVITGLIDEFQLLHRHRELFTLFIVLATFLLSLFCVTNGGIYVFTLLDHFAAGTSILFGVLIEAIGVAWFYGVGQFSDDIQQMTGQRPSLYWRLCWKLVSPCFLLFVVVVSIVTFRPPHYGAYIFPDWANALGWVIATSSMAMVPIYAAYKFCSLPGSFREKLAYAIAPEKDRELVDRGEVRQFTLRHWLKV
Sequence of Voltage-gated inwardly rectifying potassium channel KCNH2 (Q12809 whole entry): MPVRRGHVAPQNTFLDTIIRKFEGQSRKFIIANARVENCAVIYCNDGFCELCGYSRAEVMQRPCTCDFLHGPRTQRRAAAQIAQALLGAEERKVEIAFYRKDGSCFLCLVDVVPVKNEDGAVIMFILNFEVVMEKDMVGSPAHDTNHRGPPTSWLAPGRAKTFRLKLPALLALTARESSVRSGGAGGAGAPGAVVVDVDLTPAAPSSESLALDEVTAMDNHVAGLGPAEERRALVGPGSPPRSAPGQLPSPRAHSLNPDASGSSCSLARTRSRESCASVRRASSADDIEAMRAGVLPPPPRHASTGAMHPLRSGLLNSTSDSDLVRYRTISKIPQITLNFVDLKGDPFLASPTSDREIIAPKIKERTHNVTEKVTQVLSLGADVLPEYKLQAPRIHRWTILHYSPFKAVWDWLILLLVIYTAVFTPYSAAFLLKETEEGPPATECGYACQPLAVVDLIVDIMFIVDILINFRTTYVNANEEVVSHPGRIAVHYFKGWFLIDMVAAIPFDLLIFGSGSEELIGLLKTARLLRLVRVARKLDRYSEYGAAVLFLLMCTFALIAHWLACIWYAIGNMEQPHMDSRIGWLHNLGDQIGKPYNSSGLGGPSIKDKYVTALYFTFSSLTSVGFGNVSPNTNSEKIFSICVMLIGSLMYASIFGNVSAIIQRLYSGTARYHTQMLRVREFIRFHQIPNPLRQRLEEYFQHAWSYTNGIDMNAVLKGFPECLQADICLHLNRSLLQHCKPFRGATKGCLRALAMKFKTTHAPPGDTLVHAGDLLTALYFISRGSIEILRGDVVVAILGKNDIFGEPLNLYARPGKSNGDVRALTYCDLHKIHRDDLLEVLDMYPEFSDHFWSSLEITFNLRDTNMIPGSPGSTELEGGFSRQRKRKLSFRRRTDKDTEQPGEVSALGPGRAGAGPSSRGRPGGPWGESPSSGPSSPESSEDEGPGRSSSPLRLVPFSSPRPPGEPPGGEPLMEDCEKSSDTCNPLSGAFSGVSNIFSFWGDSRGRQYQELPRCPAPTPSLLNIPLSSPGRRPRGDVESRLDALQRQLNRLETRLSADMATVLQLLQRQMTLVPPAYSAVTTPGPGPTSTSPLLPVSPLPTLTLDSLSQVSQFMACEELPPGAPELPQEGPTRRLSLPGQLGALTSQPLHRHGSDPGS
Sequence of Glutamate NMDA receptor; GRIN1/GRIN2A (Q12879 whole entry, other chains not shown): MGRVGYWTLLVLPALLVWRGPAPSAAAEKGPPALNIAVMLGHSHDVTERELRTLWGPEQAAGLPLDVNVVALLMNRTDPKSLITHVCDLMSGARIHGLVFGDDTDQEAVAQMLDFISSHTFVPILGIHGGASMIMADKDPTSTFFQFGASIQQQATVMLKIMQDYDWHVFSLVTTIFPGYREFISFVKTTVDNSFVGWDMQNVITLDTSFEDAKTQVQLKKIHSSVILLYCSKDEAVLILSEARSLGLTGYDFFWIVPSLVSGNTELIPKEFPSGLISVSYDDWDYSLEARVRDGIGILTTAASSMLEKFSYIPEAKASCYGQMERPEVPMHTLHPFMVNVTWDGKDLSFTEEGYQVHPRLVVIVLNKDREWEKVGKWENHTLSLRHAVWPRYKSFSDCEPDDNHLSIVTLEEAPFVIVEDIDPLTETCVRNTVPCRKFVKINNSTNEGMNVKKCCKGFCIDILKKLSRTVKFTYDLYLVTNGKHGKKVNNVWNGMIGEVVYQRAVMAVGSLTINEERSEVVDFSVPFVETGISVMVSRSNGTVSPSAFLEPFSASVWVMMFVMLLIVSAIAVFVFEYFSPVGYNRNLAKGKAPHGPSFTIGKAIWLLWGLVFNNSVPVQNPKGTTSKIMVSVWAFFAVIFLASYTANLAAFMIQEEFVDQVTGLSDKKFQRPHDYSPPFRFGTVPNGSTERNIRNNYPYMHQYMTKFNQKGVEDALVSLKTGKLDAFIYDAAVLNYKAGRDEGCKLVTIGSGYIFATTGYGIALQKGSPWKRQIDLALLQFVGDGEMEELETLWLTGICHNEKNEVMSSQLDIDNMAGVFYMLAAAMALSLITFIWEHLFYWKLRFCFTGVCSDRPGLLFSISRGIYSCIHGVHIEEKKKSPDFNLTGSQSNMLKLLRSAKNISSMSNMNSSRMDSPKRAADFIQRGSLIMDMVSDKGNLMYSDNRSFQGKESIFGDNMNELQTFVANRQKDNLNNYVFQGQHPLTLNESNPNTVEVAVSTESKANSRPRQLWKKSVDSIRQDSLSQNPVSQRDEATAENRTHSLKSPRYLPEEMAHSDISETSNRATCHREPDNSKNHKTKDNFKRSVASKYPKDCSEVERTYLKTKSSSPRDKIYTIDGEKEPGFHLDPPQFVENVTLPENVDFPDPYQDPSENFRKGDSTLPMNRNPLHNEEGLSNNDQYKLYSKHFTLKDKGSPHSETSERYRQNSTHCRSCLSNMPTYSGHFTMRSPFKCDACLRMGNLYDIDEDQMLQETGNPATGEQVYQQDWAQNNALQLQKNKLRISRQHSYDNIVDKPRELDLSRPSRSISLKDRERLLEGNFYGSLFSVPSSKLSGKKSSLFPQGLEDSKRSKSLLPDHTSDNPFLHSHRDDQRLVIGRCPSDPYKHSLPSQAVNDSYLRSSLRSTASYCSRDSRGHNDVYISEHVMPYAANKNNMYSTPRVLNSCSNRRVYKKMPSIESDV
Sequence of Sodium-dependent serotonin transporter (P31645 whole entry): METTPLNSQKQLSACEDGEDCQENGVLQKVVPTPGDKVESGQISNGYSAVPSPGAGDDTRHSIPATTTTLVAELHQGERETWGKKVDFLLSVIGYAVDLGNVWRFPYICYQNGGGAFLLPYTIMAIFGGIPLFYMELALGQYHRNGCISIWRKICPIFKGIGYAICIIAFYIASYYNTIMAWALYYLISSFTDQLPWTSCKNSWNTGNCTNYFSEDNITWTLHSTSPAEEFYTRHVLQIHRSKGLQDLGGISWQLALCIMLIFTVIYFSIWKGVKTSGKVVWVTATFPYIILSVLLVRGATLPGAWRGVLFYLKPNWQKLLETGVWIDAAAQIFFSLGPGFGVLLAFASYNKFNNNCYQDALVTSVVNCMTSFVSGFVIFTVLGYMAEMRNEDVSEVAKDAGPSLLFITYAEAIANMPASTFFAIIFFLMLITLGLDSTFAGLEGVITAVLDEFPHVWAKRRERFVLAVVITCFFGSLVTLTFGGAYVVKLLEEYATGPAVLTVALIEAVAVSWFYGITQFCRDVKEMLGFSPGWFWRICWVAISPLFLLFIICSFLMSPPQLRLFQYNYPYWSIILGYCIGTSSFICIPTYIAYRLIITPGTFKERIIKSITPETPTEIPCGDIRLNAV
T1 sequence (P23975 whole entry): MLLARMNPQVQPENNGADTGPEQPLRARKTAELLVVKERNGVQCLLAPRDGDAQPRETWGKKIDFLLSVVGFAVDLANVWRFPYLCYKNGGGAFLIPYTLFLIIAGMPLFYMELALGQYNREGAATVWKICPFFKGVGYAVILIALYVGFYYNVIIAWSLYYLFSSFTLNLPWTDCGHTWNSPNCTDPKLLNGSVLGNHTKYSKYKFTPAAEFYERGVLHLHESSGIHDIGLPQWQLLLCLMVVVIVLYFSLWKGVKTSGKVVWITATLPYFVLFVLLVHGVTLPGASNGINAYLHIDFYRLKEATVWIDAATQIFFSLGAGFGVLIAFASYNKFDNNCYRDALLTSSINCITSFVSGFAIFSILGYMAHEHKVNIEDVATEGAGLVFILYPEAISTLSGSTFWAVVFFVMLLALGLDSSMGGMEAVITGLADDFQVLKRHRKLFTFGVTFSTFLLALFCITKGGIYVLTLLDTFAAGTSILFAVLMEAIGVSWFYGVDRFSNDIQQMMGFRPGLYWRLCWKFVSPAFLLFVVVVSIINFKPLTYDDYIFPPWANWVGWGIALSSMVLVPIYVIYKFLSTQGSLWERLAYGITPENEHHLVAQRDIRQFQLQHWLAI

Row | SMILES | IC50 at 48 h [1] [µM] | half-life [2] [h] | half-life [3] [h] | inhibition [4] | Tmax [7] [h] | half-life [8] [h] | half-life [9] [h] | IC50 at 48 h [11] [µM] | AUC(0-inf) [12] [ng·h/mL] | pIC50 [13] | AUC(0-t) at 24 h [14] [ng·h/mL] | CLint scaled [15] [mL/min/kg] | AUC(0-t) at 24 h [16] [ng·h/mL] | MRT inf [17] [h] | CLhep predicted [18] [mL/min/kg] | pIC50 [19] | Tmax [20] [min] | CLint scaled [22] [mL/min/kg] | inhibition [24] [%] | CLhep predicted [25] [mL/min/kg] | also measured
1 | COc1ccc2c(c1)[C@]13CCCC[C@@H]1[C@H](C2)N(C)CC3 [DEXTROMETHORPHAN] | > 200 | 1.93 | 0.433 | inactive | 0.83 | […] | 2.32 | > 200 | 207 | 4.89 | 198 | 20.9 | 817 | […] | 72 | 5.98 | 8.4 | 360 | 5 | 10.5 | Activity [5]: inactive; Activity [6]: Toxic; pIC50 [10]: […]; Activity [21]: Active; Activity [23]: Non-toxic; MRT last at 24 h [26]: 5.1 h; Cmax [27]: 57.7 ng/mL; Cmax [28]: 720 ng/mL; AUC(0-inf) [29]: 820 ng·h/mL
2 | CN1CC[C@@]23CCCC[C@@H]2[C@@H]1Cc1ccc(N)cc13 | > 200 | 2.92 | 2.28 | 11% | 0.42 | 3.24 | 2.08 | > 200 | 2720 | 4.66 | 2710 | 23.2 | 2520 | 2.64 | 38.9 | 5.46 | 4.8 | 68.4 | 11 | 11 | Ratio IC50 [30]: 3.35; hepatic extraction ratio at 1 h [31]: 0.423; Activity [32]: Non-toxic; inhibition [33]: 4%; hepatic extraction ratio at 1 h [34]: 0.525; Activity [35]: Dose-dependent-effect; Activity [36]: Active; pIC50 [37]: 2.98; MRT last at 24 h [26]: 2.45 h; Cmax [27]: 1380 ng/mL; Activity [38]: Non-toxic; Cmax [28]: 1360 ng/mL; AUC(0-inf) [29]: 2520 ng·h/mL
